Key:
Rattus norvegicus = assay: In vivo antagonist activity for PAF-Induced cutaneous vascular permeability in the rat; assay type: functional
[1] = target: Platelet-activating factor receptor (Oryctolagus cuniculus); assay: Functional inhibition of PAF-induced platelet degranulation
Mus musculus = assay: In vivo antagonist activity against PAF-Induced paw edema in the mouse; assay type: functional

| Compound | ED50 (Rattus norvegicus) | Kb [1] | ED50 (Mus musculus) |
| --- | --- | --- | --- |
| CN(C)C(=O)Cn1cc(C(=O)[C@@H]2CSC(c3cccnc3)N2)c2ccccc21 (some centres undefined) | 0.384 mg/kg | – | – |
| CN(C)C(=O)n1cc(C(=O)[C@@H]2CSC(c3cccnc3)N2)c2ccc(-c3cccnc3)cc21 (some centres undefined) | 4.48 mg/kg | – | – |
| O=C([C@@H]1CSC(c2cccnc2)N1)n1ccc2ccc(OCc3ccccc3)cc21 (some centres undefined) | – | 12 nM | – |
| O=C(O)C(=O)O.O=C(c1cn(C(=O)OCc2ccccc2)c2ccccc12)[C@@H]1CSC(c2cccnc2)N1 (some centres undefined) | – | – | 1.79 mg/kg |
| O=C(c1c[nH]c2cc(Br)ccc12)[C@@H]1CSC(c2cccnc2)N1 (some centres undefined) | 1.07 mg/kg | – | – |
| Cl.Cl.O=C(C1CSC(c2cccnc2)N1)n1ccc2c(Cl)cccc21 (centres undefined) | 15 mg/kg | – | – |
| Cc1c(C(=O)[C@@H]2CSC(c3cccnc3)N2)c2ccccc2n1C(=O)OC(C)(C)C.O=C(O)C(=O)O (some centres undefined) | – | – | 0.873 mg/kg |
| O=C(O)C(F)(F)F.O=C(c1c[nH]c2c(OCc3ccccc3)cccc12)[C@@H]1CSC(c2cccnc2)N1 (some centres undefined) | 1.41 mg/kg | 0.571 nM | 6.98 mg/kg |
| CN(C)C(=O)n1cc(C(=O)[C@@H]2CSC(c3cccnc3)N2)c2ccc(Cl)cc21 (some centres undefined) | 1.6 mg/kg | – | – |
| CC(C)(C)OC(=O)n1cc(C(=O)[C@@H]2CSC(c3cccnc3)N2)c2ccc(OCc3ccccc3)cc21 (some centres undefined) | 0.429 mg/kg | 1.19 nM | 1.3 mg/kg |
| CCCOc1c(OC)cc([C@@H]2CC[C@@H](c3cc(OC)c(OC)c(OC)c3)O2)cc1S(=O)(=O)CCO | 1.89 mg/kg | – | 11.5 mg/kg |
| CN(C)C(=O)n1cc(C(=O)[C@@H]2CSC(c3cccnc3)N2)c2ccc(C(=O)c3ccccc3)cc21 (some centres undefined) | 0.521 mg/kg | – | – |
| O=C(c1cn(Cc2ccccc2)c2ccccc12)[C@@H]1CSC(c2cccnc2)N1 (some centres undefined) | – | 22.1 nM | – |
| CN(C)C(=O)n1cc(C(=O)[C@@H]2CSC(c3cccnc3)N2)c2ccc(C#Cc3ccccc3)cc21 (some centres undefined) | 0.885 mg/kg | – | – |
| O=C(c1cn(C(=O)c2ccc(Cl)cc2)c2ccccc12)[C@@H]1CSC(c2cccnc2)N1 (some centres undefined) | 3.19 mg/kg | – | – |
| CCOC(=O)C1=C(c2ccc(-n3c(C)nc4cnccc43)cc2)NC(C)=C(C(=O)Nc2ccccn2)C1c1ccccc1Cl (centres undefined) | 0.232 mg/kg | – | – |
| CN(C)C(=O)n1cc(C(=O)[C@@H]2CSC(c3cccnc3)N2)c2cccc(OCc3ccccc3)c21 (some centres undefined) | – | – | 0.091 mg/kg |
| CN(C)C(=O)n1cc(C(=O)[C@@H]2CSC(c3cccnc3)N2)c2ccc(-c3ccccc3)cc21 (some centres undefined) | 1.12 mg/kg | – | 0.808 mg/kg |
| CN(C)C(=O)n1cc(C(=O)[C@@H]2CSC(c3cccnc3)N2)c2ccc(Oc3ccc(F)cc3)cc21 (some centres undefined) | 0.108 mg/kg | – | – |
| CCS(=O)(=O)n1cc(C(=O)[C@@H]2CSC(c3cccnc3)N2)c2ccccc21 (some centres undefined) | – | 1.59 nM | – |
| COc1cc(C(=O)c2cccc(NC(=O)[C@@H]3CSC(c4cccnc4)N3)c2)cc(OC)c1OC (some centres undefined) | 2.06 mg/kg | 0.415 nM | 0.476 mg/kg |
| O=C(c1c[nH]c2cc(OCc3ccccc3)ccc12)[C@@H]1CSC(c2cccnc2)N1 (some centres undefined) | 0.526 mg/kg | 0.0929 nM | 1.47 mg/kg |
| CNC(=O)n1cc(C(=O)[C@@H]2CSC(c3cccnc3)N2)c2ccccc21.O=C(O)C(=O)O.O=C(O)C(=O)O (some centres undefined) | 1.68 mg/kg | – | – |
| CN(C)C(=O)n1cc(C(=O)[C@@H]2CSC(c3cccnc3)N2)c2ccc(OCc3ccc(F)cc3)cc21 (some centres undefined) | 0.355 mg/kg | – | – |
| Cc1nnc2n1-c1sc(CCC(=O)N3CCOCC3)cc1C(c1ccccc1Cl)=NC2 [APAFANT] | 22.3 mg/kg | – | 2.2 mg/kg |
| Cc1nnc2n1C1=C(C(c3ccccc3Cl)=NC2C)C2CCN(C(=O)C3CC3)CC2S1 (centres undefined) | 0.15 mg/kg | – | 1.44 mg/kg |

| Compound | ED50 (Rattus norvegicus) | Kb [1] | ED50 (Mus musculus) |
| --- | --- | --- | --- |
| Cc1ccc2c(C(=O)[C@@H]3CSC(c4cccnc4)N3)cn(C(=O)OC(C)(C)C)c2c1 (some centres undefined) | 5.22 mg/kg | – | 1.19 mg/kg |
| CCN(CC)C(=O)n1cc(C(=O)[C@@H]2CSC(c3cccnc3)N2)c2ccccc21 (some centres undefined) | 0.616 mg/kg | – | 0.52 mg/kg |
| O=C(c1ccccc1)c1cccc(NC(=O)c2ccn3c2CSC3c2cccnc2)c1 (centres undefined) | 2.27 mg/kg | – | 4.07 mg/kg |
| O=C(C1CSC(c2cccnc2)N1)n1ccc2cc(OCc3ccccc3)ccc21 (centres undefined) | – | 1.95 nM | – |
| CC(C)(C)NC(=O)n1cc(C(=O)[C@@H]2CSC(c3cccnc3)N2)c2ccccc21 (some centres undefined) | 6.28 mg/kg | – | – |
| Cc1nnc2n1-c1sc3c(c1C(c1ccccc1Cl)=NC2)CC(C(=O)N1CCOCC1)C3 (centres undefined) [BEPAFANT] | 0.423 mg/kg | – | 0.459 mg/kg |
| CN(C)C(=O)n1cc(C(=O)[C@@H]2CSC(c3cccnc3)N2)c2ccccc21 (some centres undefined) | 1.3 mg/kg | 0.291 nM | 0.979 mg/kg |
| Cc1ccc2c(c1)c(C(=O)[C@@H]1CSC(c3cccnc3)N1)c(C)n2C(=O)OC(C)(C)C.O=C(O)C(=O)O (some centres undefined) | 9.51 mg/kg | – | – |
| CN(C)C(=O)n1cc(C(=O)[C@@H]2CSC(c3cccnc3)N2)c2ccc(OCc3ccccc3)cc21.O=C(O)C(=O)O (some centres undefined) | 0.53 mg/kg | – | 0.079 mg/kg |
| COC(=O)n1cc(C(=O)[C@@H]2CSC(c3cccnc3)N2)c2ccccc21 (some centres undefined) | 5.19 mg/kg | – | 1.97 mg/kg |
| COc1ccc2c(C(=O)[C@@H]3CSC(c4cccnc4)N3)cn(C(=O)OC(C)(C)C)c2c1.O=C(O)C(=O)O (some centres undefined) | 1.9 mg/kg | – | – |
| CC(C)(C)OC(=O)n1cc(C(=O)[C@@H]2CSC(c3cccnc3)N2)c2ccccc21 (some centres undefined) | 4.96 mg/kg | 0.111 nM | 0.372 mg/kg |
| CCS(=O)(=O)n1cc(C(=O)[C@@H]2CSC(c3cccnc3)N2)c2ccc(OCc3ccccc3)cc21 (some centres undefined) | 0.862 mg/kg | – | – |
| Cc1[nH]c2ccccc2c1C(=O)[C@@H]1CSC(c2cccnc2)N1 (some centres undefined) | – | 1.99 nM | – |
| CC(C)(C)C(=O)n1cc(C(=O)[C@@H]2CSC(c3cccnc3)N2)c2ccccc21 (some centres undefined) | – | – | 15.8 mg/kg |
| O=C(c1ccccc1)c1cccc(NC(=O)[C@@H]2CSC(c3cccnc3)N2)c1 (some centres undefined) | 12.9 mg/kg | 4.14 nM | 1.73 mg/kg |
| O=C(c1c[nH]c2cc(F)ccc12)[C@@H]1CSC(c2cccnc2)N1 (some centres undefined) | 2.69 mg/kg | – | – |
| O=C(c1cn(C(=O)N2CCOCC2)c2cc(OCc3ccccc3)ccc12)[C@@H]1CSC(c2cccnc2)N1 (some centres undefined) | 0.762 mg/kg | – | 3.7 mg/kg |
| O=C(O)C(=O)O.O=C(c1c[nH]c2ccccc12)[C@@H]1CSC(c2cccnc2)N1 (some centres undefined) | 3.65 mg/kg | – | 5.32 mg/kg |
| COc1ccc2c(C(=O)[C@@H]3CSC(c4cccnc4)N3)c[nH]c2c1 (some centres undefined) | – | – | 3.7 mg/kg |
| CN(C)C(=O)n1cc(C(=O)[C@@H]2CSC(c3cccnc3)N2)c2ccc(F)cc21 (some centres undefined) | 0.945 mg/kg | – | – |
| CN(C(=O)n1cc(C(=O)[C@@H]2CSC(c3cccnc3)N2)c2ccccc21)c1ccccc1 (some centres undefined) | – | 1.93 nM | – |
| CN(C)C(=O)n1cc(C(=O)[C@@H]2CSC(c3cccnc3)N2)c2ccc(-c3ccc(F)cc3)cc21 (some centres undefined) | 0.76 mg/kg | – | – |
| O=C(c1cn(C(=O)N2CCOCC2)c2ccccc12)[C@@H]1CSC(c2cccnc2)N1 (some centres undefined) | – | – | 2.63 mg/kg |
| O=C(c1c[nH]c2cc(-c3ccccc3)ccc12)[C@@H]1CSC(c2cccnc2)N1 (some centres undefined) | 2.3 mg/kg | – | 5.39 mg/kg |
| O=C(c1c[nH]c2cc(OCc3ccc(F)cc3)ccc12)[C@@H]1CSC(c2cccnc2)N1 (some centres undefined) | 0.273 mg/kg | – | – |

Reference: ChEMBL document CHEMBL1127801, “3-(2-(3-Pyridinyl)thiazolidin-4-oyl)indoles, a novel series of platelet activating factor antagonists” (J Med Chem, 1994)
